Laboratory results taken from publication PMC5889877, “Ex Vivo Cardiotoxicity of Antineoplastic Casiopeinas Is Mediated through Energetic Dysfunction and Triggered Mitochondrial-Dependent Apoptosis” (Oxidative Medicine and Cellular Longevity, 2018).
Read-outs that look alike come from different tables or passages of the source. Marks after values point to notes of the source that are not given here.

Legend:
[1] = biological target: T1, adenine nucleotide translocase (Rattus norvegicus, UniProt Q05962); test: Thiol groups of adenine nucleotide translocase (eosin 5-maleimide); settings: mitochondria from hearts treated at IC50
T1 construct: adenine nucleotide translocase from mitochondria isolated from Cas-treated hearts; from tissue; host or cells: mitochondria isolated from Casiopeina-perfused rat hearts
T1 sequence (Q05962 1-298): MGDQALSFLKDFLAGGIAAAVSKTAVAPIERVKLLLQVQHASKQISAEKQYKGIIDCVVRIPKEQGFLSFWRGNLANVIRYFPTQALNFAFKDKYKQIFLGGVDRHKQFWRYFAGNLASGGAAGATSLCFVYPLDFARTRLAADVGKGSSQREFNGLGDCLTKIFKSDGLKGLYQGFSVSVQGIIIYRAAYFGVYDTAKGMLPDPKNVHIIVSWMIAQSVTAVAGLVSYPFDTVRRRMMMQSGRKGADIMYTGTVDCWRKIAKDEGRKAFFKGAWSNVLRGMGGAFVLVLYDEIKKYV
Method: (§5) Thiol groups in the adenine nucleotide translocase were measured by eosin 5-maleimide interaction (EMA) with cysteine residues susceptible to oxidative stress or oxidizing agents [21] and followed by SDS/PAGE electrophoresis. […] Experiments for anion superoxide production were performed in intact cardiomyoblasts using the fluorescent probe MitoSOX (Molecular Probes) in the flow cytometer. H9c2 cells were loaded with MitoSOX during 15 min at 37°C with a cell density of 100,000 cells/mL (final concentration of MitoSOX 5 μM). Afterwards, the cells were subjected to Cas III-Ea treatment (4 or 20 μM); DOXO (5 μM) and Antimycin A (10 μg/mL) were used as positive controls. Finally, the cells were washed and analyzed on a FACSCanto II (BD Biosciences). FACS data was analyzed using FlowJo version 10.0 (Tree Star).

[2] = system: mitochondria isolated from treated hearts; test: Mitochondrial membrane potential (safranine fluorometry); design: species or system rat
Method: To measure mitochondrial oxygen consumption, mitochondrial membrane potential, and Ca^2+ uptake, cytochrome c samples were prepared as follows: after perfusion, heart tissue from the left ventricle was minced and homogenized in cold mitochondrial isolation medium (in mM: 125 KCl, 1 EDTA, and 10 HEPES-HCl; pH 7.3). The mitochondrial fraction was obtained by differential centrifugation using the protease Nagarse, as previously described. Mitochondrial oxygen consumption was measured using a Clark-type oxygen electrode. The experiments were carried out in respiration assay medium containing 125 KCl, 10 HEPES-HCl, and 3 KH2PO4 (in mM) with pH 7.3. State 4 respiration was measured in the presence of 10 mM glutamate-malate, and state 3 respiration was evaluated after addition of 100 μM ADP. Maximal respiration was determined with 0.08 μM of carbonyl cyanide m-chlorophenyl hydrazine (CCCP). The mitochondrial membrane potential was measured by fluorometry using 5 μM safranine. Mitochondrial Ca^2+ uptake was determined with the metalochromic indicator, Arsenazo III, or calcium green 5N (5N-CG), using a medium containing 50 μM Arsenazo or 10 μM 5N-CG, 10 mM succinate plus rotenone (0.1 μg·ml^−1), 200 μM ADP, and 0.25 μg oligomycin A. Pulses of 10 nmol Ca^+2 were added every 3 minutes to reach a Ca^+2 release due to MPT opening. […]

H9c2 cells = test: Mitochondrial anion superoxide production, MitoSOX flow cytometry; type: cell-based; settings: for increase in MitoSOX mean intensity (anion superoxide production): H9c2, acute, Antimycin A 10 μg/mL, Doxo 5 μM
Method: as §5

[3] = system: mitochondria isolated from Cas-treated hearts; test: Respiratory activity of mitochondria isolated from treated hearts (Clark-type oxygen electrode); design: species or system rat; settings: for Max. respiration: 0.08 μM CCCP; for State 4 respiration: 10 mM glutamate-malate; for Respiratory control / State 3 respiration: malate/glutamate; for State 3 respiration: after 100 μM ADP
Method: (§1) To measure mitochondrial oxygen consumption, mitochondrial membrane potential, and Ca^2+ uptake, cytochrome c samples were prepared as follows: after perfusion, heart tissue from the left ventricle was minced and homogenized in cold mitochondrial isolation medium (in mM: 125 KCl, 1 EDTA, and 10 HEPES-HCl; pH 7.3). The mitochondrial fraction was obtained by differential centrifugation using the protease Nagarse, as previously described. Mitochondrial oxygen consumption was measured using a Clark-type oxygen electrode. The experiments were carried out in respiration assay medium containing 125 KCl, 10 HEPES-HCl, and 3 KH2PO4 (in mM) with pH 7.3. State 4 respiration was measured in the presence of 10 mM glutamate-malate, and state 3 respiration was evaluated after addition of 100 μM ADP. Maximal respiration was determined with 0.08 μM of carbonyl cyanide m-chlorophenyl hydrazine (CCCP). The mitochondrial membrane potential was measured by fluorometry using 5 μM safranine. Mitochondrial Ca^2+ uptake was determined with the metalochromic indicator, Arsenazo III, or calcium green 5N (5N-CG), using a medium containing 50 μM Arsenazo or 10 μM 5N-CG, 10 mM succinate plus rotenone (0.1 μg·ml^−1), 200 μM ADP, and 0.25 μg oligomycin A. Pulses of 10 nmol Ca^+2 were added every 3 minutes to reach a Ca^+2 release due to MPT opening. Mitochondrial cytochrome c quantification from Cas-treated hearts was performed using Western blot analysis as described previously. The blots were developed with Luminata crescendo substrate (Merck Millipore, Darmstadt, Germany) and detected with VisionWorks LS-UVP Chimio System (BioSpectrum 415 Imaging System, Cambridge, UK).

[4] = system: adult rat ventricular myocytes; test: Cardiomyocyte viability, Alamar Blue; type: cell-based; settings: 24 h treatment, read-out: LD50 (IC50) for cardiomyocyte viability
Description: (§2) Ventricular cardiomyocytes were obtained from male Wistar rats (250–300 g) by digestion with collagenase type II as previously described. Cells were washed in Tyrode solution (mM): 130 NaCl, 5.4 KCl, 0.4 NaH2PO4, 0.5 MgCl2, 25 HEPES, and 5 glucose with pH 7.4. After isolation, cells were cultivated at a density of 3.2 × 10^3 viable cells/well in 96-well plates pretreated with laminin in M-199 medium supplemented in mM with 5 taurine, 5 creatine, 2 L-carnitine, 2.5 sodium pyruvate, and penicillin-streptomycin at 100 U·ml^−1 and 100 μg·ml^−1, respectively, at 37°C, with 5% CO2 and 95% air. After incubation for three hours, varying concentrations of Cas were tested in triplicate, exposing the myocytes during 24 hours to each treatment. At the end of the incubation period, the cytotoxicity of Cas was measured using the Alamar Blue viability test (Life Technologies, Carlsbad, CA, USA). Release of cytoplasmic lactate dehydrogenase (LDH) was determined using CytoTox-ONE homogeneous membrane integrity kit (Promega Madison, WI, USA). The activity of caspases 3/7 and caspase 9 was measured in cell lysates using caspase-Glo 3/7 and caspase-Glo 9 test luminescent assay (Promega, Madison, WI, USA), respectively. The cardiomyoblast cell line H9c2 (ATCC CRL-1446) was maintained using standard procedures in DMEM supplemented with 10% fetal bovine serum prior to the oxidative stress experiments.

isolated rat hearts [5] = test: Langendorff-perfused isolated rat heart: mechanical performance (RPP, HR, ±dP/dt, cardiac efficiency); settings: for RPP reduction from baseline / t 0.5, time for half-inhibition of RPP: 5 μM; for decrease of cardiac efficiency (CE): at IC50 for RPP; for +dP/dt × 1000 (contraction rate) / Cardiac efficiency / −dP/dt × 1000 (relaxation rate): hearts treated at the IC50; for heart rate (HR) reduction: perfused at 5 μM; for IC50: read-out: IC50, half-maximal inhibitory concentration for RPP (heart contractile function)
Method: (§3) Male Wistar rats (250–300 g) were injected with heparin (10^3 U·kg^−1, i.p.) 20 minutes prior to anesthesia with pentobarbital (100 mg·kg^−1, i.p.). When bilateral corneal reflex was absent, the heart was excised through an abdominal approach. Then, the ascending aorta was visualized and cut and the heart was placed in a cardioplegic solution. To avoid ischemia, the time between cutting the diaphragm to placing the heart in the solution was less than 60 seconds. The hearts were mounted in accordance with the Langendorff model and perfused at a constant flow (12 ml·min^−1) with a Krebs-Henseleit buffer as previously described. A latex balloon connected to a pressure transducer filled with saline solution was inserted into the left ventricle after establishing autonomous contraction. The pulmonary artery was cannulated and connected to a closed chamber using a Clark-type oxygen electrode (Yellow Springs Instruments, Yellow Springs, Ohio) to measure myocardial oxygen consumption (MVO2) in the coronary effluent. The rate of MVO2 was calculated as the difference between the concentration in the K-H buffer before (100%) and after perfusion. Data Trax software (WPI, Sarasota, Florida) was used for continuous recording of the heart rate (HR), left ventricular pressure (LVP), MVO2, and maximum positive and negative derivative of left ventricular pressure (±dP/dt). The baseline was established during 10–15 minutes of K-H perfusion. Each concentration of Cas or Doxo remained in the heart for 30 min. Hearts in the control group were perfused with K-H buffer during the whole experimental time. Rate pressure product (RPP = HR × LVP) and cardiac efficiency ([…]) were calculated as previously reported.

[6] = system: mitochondrial permeability transition pore; test: Mitochondrial Ca2+ retention capacity (MPT opening); design: species or system rat
Method: as §1

isolated rat hearts [7] = test: Myocardial oxygen consumption and energetic metabolites (ATP, PCr) in perfused hearts; settings: Cas at IC50, Doxo 5 μM
Method: as §3
(§4) To measure the energetic metabolites ATP, phosphocreatine (PCr), and aconitase activity at the end of the perfusion protocols, samples were prepared as follows: the hearts were removed from the perfusion system by cutting the aorta and immediately flash-frozen with liquid N2, weighed, and stored at −80°C. Afterward, the hearts were homogenized in ice-cold buffer containing 250 mM sucrose, 10 mM HEPES, and 1 mM EDTA (pH 7.4). For enzymatic determination, aliquots of the homogenate were immediately frozen in liquid nitrogen and stored at −80°C. Quantification of ATP and PCr was carried out in a HPLC system with a dual-pump gradient (Waters Chromatography, Toronto, Canada) as previously described.

isolated cardiomyocytes = test: LDH release (CytoTox-ONE); type: cell-based, rat; settings: cardiomyocytes treated at IC50 (II-gly 2 μM, Doxo 10 μM)
Description: as §2

subcutaneous tumors = settings: nude mice ref 30; cited from earlier work
aconitase = test: Mitochondrial aconitase activity in heart homogenates; settings: ex vivo heart, Cas at IC50, Doxo 5 μM
Method: as §4

[8] = mitochondria from CsA-III-Ea-treated hearts
[9] = mitochondria from hearts perfused with 10 μM III-Ea alone
[10] = mitochondria from treated hearts, CsA 0.5 μM added in vitro

SMILES	Max. respiration [3]	State 4 respiration [3] [nmol O min^−1·mg^−1]	Respiratory control [3]	State 3 respiration [3]	decrease of cardiac efficiency (CE) (isolated rat hearts [5]) [%]	+dP/dt × 1000 (contraction rate) (isolated rat hearts [5])	Cardiac efficiency (isolated rat hearts [5])	−dP/dt × 1000 (relaxation rate) (isolated rat hearts [5])	t 0.5, time for half-inhibition of RPP (isolated rat hearts [5]; isolated rat heart)	heart rate (HR) reduction (isolated rat hearts [5])	additional MVO2 to generate the same contractile force compared to control hearts (RPP/MVO2 ratio) (isolated rat hearts [7]) [fold]	change in MVO2 (isolated rat hearts [7])	decrease in ATP content (isolated rat hearts [7]) [%]	increase in MitoSOX mean intensity (anion superoxide production) (H9c2 cells) [fold]	other results
CC(=O)C=C(C)[O-].Cc1ccnc2c1ccc1c(C)ccnc12.O.O.O=[N+]([O-])[O-].[Cu+2] [Cas III-Ea, Aqua(4,7-dimethyl-1,10-phenanthroline)(acetylacetonate)copper(II)nitrate]	48.3 ± 5.7^∗ nmol O min^−1·mg^−1	24.5 ± 5.4	1.5 ± 0.2^∗	37.3 ± 2.7^∗ nmol O min^−1·mg^−1	47	2.4 ± 0.23^∗ mmHg·s^−1	3.3 ± 0.2^∗ RPP · MVO2 ^−1	−0.8 ± 0.13^∗ mmHg·s^−1	21 ± 5.0^d min	not affected	1.47	no changes	56		oxidation state of adenine nucleotide translocase thiol groups [1]: twofold increase; mitochondrial membrane potential after addition of 10 μM Ca2+ [2, 8]: remained polarized; mitochondrial membrane potential after addition of 10 μM Ca2+ [2, 9]: depolarization; change in anion superoxide production (MitoSOX) (H9c2 cells; H9c2 intact cells, 4 or 20 μM): no change; IC50 [4]: 2 ± 0.4 µM; t 0.5 of decline of contractility (RPP) (isolated rat hearts [5]; 1 μM CsA perfused 10 min, then 10 μM III-Ea): 11.98 min; RPP reduction from baseline (isolated rat hearts [5]; at 20 min): 48%; RPP reduction from baseline (isolated rat hearts [5]; at 30 min): 97%; t 0.5 of decline of contractility (RPP) (isolated rat hearts [5]; 10 μM III-Ea alone): 9.65 min; IC50 (isolated rat hearts [5]; isolated rat heart, at 30 min perfusion): 1.3 ± 0.2 µM; more calcium tolerated than mitochondria from III-Ea hearts [6, 8]: 69%; calcium retention capacity ([6]; mitochondria from CsA-III-Ea-treated hearts (1 μM CsA before 10 μM III-Ea)): 226 ± 13 nmol/mg; calcium retention capacity [6, 9]: 133 ± 14 nmol/mg; decrease of mitochondrial Ca2+ retention capacity ([6]; mitochondria from hearts treated at IC50, versus control): 50.5%; delay in the opening of MPT in the presence of CsA [6, 10]: 1.8 fold
COc1cccc2c1C(=O)c1c(O)c3c(c(O)c1C2=O)C[C@@](O)(C(=O)CO)C[C@@H]3O[C@H]1C[C@H](N)[C@H](O)[C@H](C)O1 [Doxo, Doxorubicin, reference compound]	25 ± 15.1^∗ nmol O min^−1·mg^−1	18 ± 2.0	1 ± 0.3^∗	25 ± 8.8^∗ nmol O min^−1·mg^−1	55	2.1 ± 0.23^∗ mmHg·s^−1	2.8 ± 0.1^∗ RPP · MVO2 ^−1	−0.8 ± 0.18^∗ mmHg·s^−1	18.6 ± 4.0^d min	24%	1.8	no changes	74	4	increase in LDH release compared to the control (isolated cardiomyocytes): 4.7 fold; reduction of the volume of subcutaneous tumors (subcutaneous tumors): 20%; aconitase activity (aconitase): decreased; IC50 ([4]; Rattus norvegicus, Ventricular myocyte): 10 ± 0.5 µM; IC50 (isolated rat hearts [5]; Rattus norvegicus, 0.5 h): 5 ± 0.3 µM; protective effect of CsA on Ca2+ retention capacity [6, 10]: 51%; PCr levels (isolated rat hearts [7]): decreased
CCCCCC[C@H]1C(=O)O[C@H](C)[C@H](NC(=O)c2cccc(NC=O)c2O)C(=O)O[C@@H](C)[C@@H]1OC(=O)CC(C)C [Antimycin A]														9	
